Results as given in US12502362B2, “Inhibitors of nucleotidyltransferase superfamily enzymes as antibiotics” (priority 2017, dated 2025).
Like-named read-outs stand apart in the source and are kept apart here.

Columns and labels:
Morganella morganii = test: Antibiotic susceptibility of Morganella morganii strain; type: cell-based; conditions: Mm1 (Morganella morganii)
Text: (§1) All these MDR-bacteria are at least resistant to two classes of the antibiotics among five groups and/or specific antibiotics including quinolones/fluorquinolones, carbapenems, cephalosporins, aminoglycosides and piperacillin-tazobactam.

[1] = test system: MDR Acinetobacter baumannii; type: cell-based
Text: as §1

MDR E. coli = type: cell-based
Text: as §1

Klebsiella pneumonia = test: Antibiotic susceptibility of Klebsiella pneumonia strains; type: cell-based
Text: as §1

Citrobacter koseri = test: Antibiotic susceptibility of Citrobacter koseri strain; type: cell-based; conditions: Ck1 (Citrobacter koseri)
Text: as §1

[2] = test system: Enterobacter cloacae complex; test: Antibiotic susceptibility of Enterobacter cloacae complex strain; type: cell-based; conditions: Ecc1 (Enterobacter cloacae complex)
Text: as §1

[3] = test system: Coagulase negative Staphylococcus; test: Antibiotic susceptibility of coagulase negative Staphylococcus strains; type: cell-based
[4] = test system: S. aureus ATCC strains and MRSA; type: cell-based, Staphylococcus aureus
Staphylococcus hominis = type: cell-based
Description: (§2) It was also tested whether compounds #63 and #285 can inhibit other coagulase-negative Staphylococcus (CNS) including S. epidermidis, S. hominis, etc. […].

[5] = test system: Staphylococcus epidermidis; type: cell-based
Description: as §2

Measured: Antibiotic susceptibility

CC1(C)S[C@@H]2[C@H](NC(=O)[C@H](N)c3ccccc3)C(=O)N2[C@H]1C(=O)O [AMP, Ampicillin]
R: Morganella morganii | [1]; Ab1 (Acinetobacter baumannii) | [1]; Ab2 (Acinetobacter baumannii) | [1]; Ab3 (Acinetobacter baumannii) | [1]; Ab4 (Acinetobacter baumannii) | [1]; Ab5 (Acinetobacter baumannii) | MDR E. coli; Ec1 (E. coli) | MDR E. coli; Ec2 (E. coli) | MDR E. coli; Ec3 (E. coli) | MDR E. coli; Ec4 (E. coli) | MDR E. coli; Ec5 (E. coli) | Klebsiella pneumonia; Kp1 (Klebsiella pneumonia) | Klebsiella pneumonia; Kp6 (Klebsiella pneumonia)

CC(C)(O/N=C(\C(=O)N[C@@H]1C(=O)N2C(C(=O)[O-])=C(C[n+]3ccccc3)CS[C@H]12)c1csc(N)n1)C(=O)O [CAZ, Ceftazidime]
R: Morganella morganii | Citrobacter koseri | [2] | [1]; Ab1 (Acinetobacter baumannii) | [1]; Ab2 (Acinetobacter baumannii) | [1]; Ab3 (Acinetobacter baumannii) | [1]; Ab4 (Acinetobacter baumannii) | [1]; Ab5 (Acinetobacter baumannii) | MDR E. coli; Ec1 (E. coli) | MDR E. coli; Ec2 (E. coli) | MDR E. coli; Ec3 (E. coli) | MDR E. coli; Ec4 (E. coli) | MDR E. coli; Ec5 (E. coli) | Klebsiella pneumonia; Kp1 (Klebsiella pneumonia) | Klebsiella pneumonia; Kp6 (Klebsiella pneumonia)

Cc1nnc(SCC2=C(C(=O)O)N3C(=O)[C@@H](NC(=O)Cn4cnnn4)[C@H]3SC2)s1 [CFZ, Cefazolin]
R: Morganella morganii | Citrobacter koseri | [1]; Ab1 (Acinetobacter baumannii) | [1]; Ab2 (Acinetobacter baumannii) | [1]; Ab3 (Acinetobacter baumannii) | [1]; Ab4 (Acinetobacter baumannii) | [1]; Ab5 (Acinetobacter baumannii) | MDR E. coli; Ec1 (E. coli) | MDR E. coli; Ec2 (E. coli) | MDR E. coli; Ec3 (E. coli) | MDR E. coli; Ec4 (E. coli) | MDR E. coli; Ec5 (E. coli) | Klebsiella pneumonia; Kp1 (Klebsiella pneumonia) | Klebsiella pneumonia; Kp6 (Klebsiella pneumonia)

CO/N=C(\C(=O)N[C@@H]1C(=O)N2C(C(=O)O)=C(CSc3nc(=O)c(=O)[nH]n3C)CS[C@H]12)c1csc(N)n1 [CRO, Ceftriaxone]
R: [2] | [1]; Ab1 (Acinetobacter baumannii) | [1]; Ab2 (Acinetobacter baumannii) | [1]; Ab3 (Acinetobacter baumannii) | [1]; Ab4 (Acinetobacter baumannii) | [1]; Ab5 (Acinetobacter baumannii) | MDR E. coli; Ec1 (E. coli) | MDR E. coli; Ec2 (E. coli) | MDR E. coli; Ec3 (E. coli) | MDR E. coli; Ec4 (E. coli) | MDR E. coli; Ec5 (E. coli) | Klebsiella pneumonia; Kp1 (Klebsiella pneumonia) | Klebsiella pneumonia; Kp6 (Klebsiella pneumonia)
I: Morganella morganii
S: Citrobacter koseri

C[C@@H](O)[C@H]1C(=O)N2C(C(=O)O)=C(S[C@@H]3CN[C@H](C(=O)Nc4cccc(C(=O)O)c4)C3)[C@H](C)[C@H]12 [ETP, Ertapenem]
S: Morganella morganii | Citrobacter koseri | [2] | MDR E. coli; Ec1 (E. coli) | MDR E. coli; Ec2 (E. coli) | MDR E. coli; Ec3 (E. coli) | MDR E. coli; Ec4 (E. coli) | MDR E. coli; Ec5 (E. coli) | Klebsiella pneumonia; Kp1 (Klebsiella pneumonia) | Klebsiella pneumonia; Kp6 (Klebsiella pneumonia)

CO/N=C(\C(=O)N[C@@H]1C(=O)N2C(C(=O)[O-])=C(C[N+]3(C)CCCC3)CS[C@H]12)c1csc(N)n1 [FEP, Cefepime]
R: [1]; Ab1 (Acinetobacter baumannii) | [1]; Ab2 (Acinetobacter baumannii) | [1]; Ab3 (Acinetobacter baumannii) | [1]; Ab4 (Acinetobacter baumannii) | [1]; Ab5 (Acinetobacter baumannii) | MDR E. coli; Ec1 (E. coli) | MDR E. coli; Ec2 (E. coli) | MDR E. coli; Ec3 (E. coli) | MDR E. coli; Ec4 (E. coli) | MDR E. coli; Ec5 (E. coli) | Klebsiella pneumonia; Kp1 (Klebsiella pneumonia) | Klebsiella pneumonia; Kp6 (Klebsiella pneumonia)
S: Morganella morganii | Citrobacter koseri

C[C@@H](O)[C@H]1C(=O)N2C(C(=O)O)=C(SCCN=CN)C[C@H]12 [IPM, Imipenem]
R: [1]; Ab5 (Acinetobacter baumannii)
S: Morganella morganii | Citrobacter koseri | [2] | [1]; Ab1 (Acinetobacter baumannii) | MDR E. coli; Ec1 (E. coli) | MDR E. coli; Ec2 (E. coli) | MDR E. coli; Ec3 (E. coli) | MDR E. coli; Ec4 (E. coli) | MDR E. coli; Ec5 (E. coli) | Klebsiella pneumonia; Kp1 (Klebsiella pneumonia) | Klebsiella pneumonia; Kp6 (Klebsiella pneumonia)
I: [1]; Ab2 (Acinetobacter baumannii) | [1]; Ab3 (Acinetobacter baumannii) | [1]; Ab4 (Acinetobacter baumannii)

C[C@H]1COc2c(N3CCN(C)CC3)c(F)cc3c(=O)c(C(=O)O)cn1c23 [LVX, levofloxacin]
R: [3]; CNS2 (Coagulase negative Staphylococcus) | [4]; S. aureus ATCC BAA 1026 | [4]; Sa1 (MRSA) | [4]; Sa2 (MRSA) | [4]; Sa3 (MRSA) | [4]; Sa6 (MRSA) | [4]; Sa9 (MRSA) | [4]; Sa11 (MRSA) | [4]; Sa12 (MRSA) | [4]; Sa14 (MRSA) | [4]; Sa15 (MRSA) | [4]; Sa16 (MRSA) | [4]; Sa17 (MRSA) | [4]; Sa18 (MRSA) | [4]; Sa20 (MRSA) | Morganella morganii | [1]; Ab1 (Acinetobacter baumannii) | [1]; Ab3 (Acinetobacter baumannii) | [1]; Ab4 (Acinetobacter baumannii) | [1]; Ab5 (Acinetobacter baumannii) | MDR E. coli; Ec2 (E. coli) | MDR E. coli; Ec4 (E. coli) | MDR E. coli; Ec5 (E. coli) | Klebsiella pneumonia; Kp6 (Klebsiella pneumonia) | Staphylococcus hominis; Sh1 (Staphylococcus hominis) | [5]; Se1 (Staphylococcus epidermidis) | [5]; Se3 (Staphylococcus epidermidis) | [5]; Se4 (Staphylococcus epidermidis) | [5]; Se5 (Staphylococcus epidermidis)
I: Citrobacter koseri | [1]; Ab2 (Acinetobacter baumannii)
S: [3]; CNS1 (Coagulase negative Staphylococcus) | [4]; S. aureus ATCC 25923 | [4]; S. aureus ATCC 29213 | [4]; S. aureus ATCC BAA 976 | [4]; S. aureus ATCC BAA 977 | [4]; Sa7 (MRSA) | [4]; Sa19 (MRSA) | [4]; Sa21 (MRSA) | [4]; Sa22 (MRSA) | [4]; Sa23 (MRSA) | [2] | MDR E. coli; Ec1 (E. coli) | MDR E. coli; Ec3 (E. coli) | Klebsiella pneumonia; Kp1 (Klebsiella pneumonia) | Staphylococcus hominis; Sh2 (Staphylococcus hominis) | Staphylococcus hominis; Sh3 (Staphylococcus hominis) | [5]; Se2 (Staphylococcus epidermidis)

C[C@@H](O)[C@H]1C(=O)N2C(C(=O)O)=C(S[C@@H]3CN[C@H](C(=O)N(C)C)C3)[C@H](C)[C@H]12 [MEM, Meropenem]
S: Citrobacter koseri | [2] | MDR E. coli; Ec1 (E. coli) | MDR E. coli; Ec2 (E. coli) | MDR E. coli; Ec3 (E. coli) | MDR E. coli; Ec4 (E. coli) | MDR E. coli; Ec5 (E. coli) | Klebsiella pneumonia; Kp1 (Klebsiella pneumonia)

NC[C@H]1O[C@H](O[C@H]2[C@H](O)[C@@H](O[C@H]3O[C@H](CO)[C@@H](O)[C@H](N)[C@H]3O)[C@H](N)C[C@@H]2N)[C@H](N)C[C@@H]1O [TOB, Tobramycin]
R: MDR E. coli; Ec4 (E. coli) | MDR E. coli; Ec5 (E. coli) | Klebsiella pneumonia; Kp6 (Klebsiella pneumonia)
S: [2] | [1]; Ab1 (Acinetobacter baumannii) | [1]; Ab2 (Acinetobacter baumannii) | [1]; Ab3 (Acinetobacter baumannii) | [1]; Ab4 (Acinetobacter baumannii) | Klebsiella pneumonia; Kp1 (Klebsiella pneumonia)
I: Morganella morganii | Citrobacter koseri | [1]; Ab5 (Acinetobacter baumannii) | MDR E. coli; Ec1 (E. coli) | MDR E. coli; Ec2 (E. coli) | MDR E. coli; Ec3 (E. coli)

Amoxicillin-clavulanic acid [AMC]
R: Morganella morganii | [2] | [1]; Ab1 (Acinetobacter baumannii) | [1]; Ab2 (Acinetobacter baumannii) | [1]; Ab3 (Acinetobacter baumannii) | [1]; Ab4 (Acinetobacter baumannii)
I: Citrobacter koseri | MDR E. coli; Ec5 (E. coli) | Klebsiella pneumonia; Kp6 (Klebsiella pneumonia)
S: [1]; Ab5 (Acinetobacter baumannii) | MDR E. coli; Ec1 (E. coli) | MDR E. coli; Ec2 (E. coli) | MDR E. coli; Ec3 (E. coli) | MDR E. coli; Ec4 (E. coli) | Klebsiella pneumonia; Kp1 (Klebsiella pneumonia)

Ampicillin-Sulbactam [SAM]
I: [1]; Ab5 (Acinetobacter baumannii) | MDR E. coli; Ec2 (E. coli) | MDR E. coli; Ec3 (E. coli)
R: Morganella morganii | MDR E. coli; Ec1 (E. coli) | MDR E. coli; Ec4 (E. coli) | MDR E. coli; Ec5 (E. coli) | Klebsiella pneumonia; Kp1 (Klebsiella pneumonia) | Klebsiella pneumonia; Kp6 (Klebsiella pneumonia)
S: [1]; Ab1 (Acinetobacter baumannii) | [1]; Ab2 (Acinetobacter baumannii) | [1]; Ab3 (Acinetobacter baumannii) | [1]; Ab4 (Acinetobacter baumannii)

Piperacillin-tazobactam [TZP]
I: Citrobacter koseri
R: [2] | [1]; Ab3 (Acinetobacter baumannii) | Klebsiella pneumonia; Kp6 (Klebsiella pneumonia)
S: Morganella morganii | MDR E. coli; Ec1 (E. coli) | MDR E. coli; Ec2 (E. coli) | MDR E. coli; Ec3 (E. coli) | MDR E. coli; Ec4 (E. coli) | MDR E. coli; Ec5 (E. coli) | Klebsiella pneumonia; Kp1 (Klebsiella pneumonia)
